Measurements from patent EP1383793B1 (priority 2000, dated 2001).
Positions of bridges follow the written chain, without caps; N, C: chain ends. Residues, ends and D or L forms follow the SMILES beside them. *: point of attachment. Biotin = O=C1N[C@H]2[C@H](CS[C@H]2CCCCC(=O)*)N1

Columns and labels:
Insulin receptor = biological target: T1, Insulin receptor (Homo sapiens, UniProt P06213); test: BIAcore competition: IR pre-incubated with test substance, injected over immobilised insulin; type: binding; details: peptide about 40 µM, IR 450 nM; IR alone 128 RU
T1 construct: composed of the extracellular domains of both the α and β chains of the natural receptor; made in house; background b13 names human embryonic kidney 293 cells for the Bass et al. construct
T1 sequence (P06213 28-758 limits assumed): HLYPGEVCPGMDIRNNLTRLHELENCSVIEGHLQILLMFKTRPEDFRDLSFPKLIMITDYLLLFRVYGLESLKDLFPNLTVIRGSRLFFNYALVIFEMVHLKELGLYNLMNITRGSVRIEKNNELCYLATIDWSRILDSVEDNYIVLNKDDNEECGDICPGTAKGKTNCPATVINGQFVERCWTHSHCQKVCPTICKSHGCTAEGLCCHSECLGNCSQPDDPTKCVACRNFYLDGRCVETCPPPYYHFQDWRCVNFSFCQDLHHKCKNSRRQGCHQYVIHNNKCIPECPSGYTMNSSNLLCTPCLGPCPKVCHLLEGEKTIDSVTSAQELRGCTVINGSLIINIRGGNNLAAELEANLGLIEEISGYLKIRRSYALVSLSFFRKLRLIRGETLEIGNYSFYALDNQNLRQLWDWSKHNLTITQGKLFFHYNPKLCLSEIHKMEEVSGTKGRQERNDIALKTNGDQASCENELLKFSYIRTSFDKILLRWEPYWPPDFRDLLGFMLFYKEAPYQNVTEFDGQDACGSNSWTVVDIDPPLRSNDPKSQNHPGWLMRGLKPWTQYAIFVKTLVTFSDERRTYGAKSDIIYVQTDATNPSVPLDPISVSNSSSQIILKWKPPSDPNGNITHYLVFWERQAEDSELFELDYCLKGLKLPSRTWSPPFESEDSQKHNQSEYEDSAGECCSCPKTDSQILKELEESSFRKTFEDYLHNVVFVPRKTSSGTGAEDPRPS
T1 sequence (P06213 763-956 limits assumed): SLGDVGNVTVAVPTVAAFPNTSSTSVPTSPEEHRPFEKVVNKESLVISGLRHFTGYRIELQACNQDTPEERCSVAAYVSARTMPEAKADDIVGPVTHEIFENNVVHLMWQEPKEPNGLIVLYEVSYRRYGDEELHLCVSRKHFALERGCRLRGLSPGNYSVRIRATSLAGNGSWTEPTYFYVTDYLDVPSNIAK
Method: Flowcell-1 was used for background binding to correct for any non-specific binding. […] The surface was regenerated with 25 mM NaOH. […] Thus, the system was validated for competition studies. […] The amino acid sequences referred to in the tables are identified in Figures 47 and 48, except the 447 and 2A9 sequences, which are shown below. TABLE 9: BIAcore Results-Fusion Proteins Compete for Binding to IR

adipocytes = test: 3H-glucose uptake into adipocytes (fat cell assay, FFC); type: cell-based, Mouse; details: Subjective ranking; basal and sub maximal insulin; includes series A
IR = biological target: T2, IR (Homo sapiens, UniProt P06213); test: Phage ELISA, binding of phage-displayed peptides to IR; details: 405 nm
T2 construct: composed of the extracellular domains of both the α and β chains of the natural receptor; made in house; background b13 names human embryonic kidney 293 cells for the Bass et al. construct
T2 sequence (P06213 28-758 limits assumed): as the sequence (P06213 28-758 limits assumed) above
T2 sequence (P06213 763-956 limits assumed): as the sequence (P06213 763-956 limits assumed) above

IGF-1R [1] = biological target: T3, IGF-1R (Homo sapiens, UniProt P08069); test: IGF-1R peptide assay, competition dissociation of 20E2; type: binding; details: peptides 100 µM, IGF-1 30 µM
T3 construct: Soluble IGF-1R was obtained from R&D Systems; purchased R&D Systems 391-GR/CF
T3 sequence (P08069 31-736 limits assumed): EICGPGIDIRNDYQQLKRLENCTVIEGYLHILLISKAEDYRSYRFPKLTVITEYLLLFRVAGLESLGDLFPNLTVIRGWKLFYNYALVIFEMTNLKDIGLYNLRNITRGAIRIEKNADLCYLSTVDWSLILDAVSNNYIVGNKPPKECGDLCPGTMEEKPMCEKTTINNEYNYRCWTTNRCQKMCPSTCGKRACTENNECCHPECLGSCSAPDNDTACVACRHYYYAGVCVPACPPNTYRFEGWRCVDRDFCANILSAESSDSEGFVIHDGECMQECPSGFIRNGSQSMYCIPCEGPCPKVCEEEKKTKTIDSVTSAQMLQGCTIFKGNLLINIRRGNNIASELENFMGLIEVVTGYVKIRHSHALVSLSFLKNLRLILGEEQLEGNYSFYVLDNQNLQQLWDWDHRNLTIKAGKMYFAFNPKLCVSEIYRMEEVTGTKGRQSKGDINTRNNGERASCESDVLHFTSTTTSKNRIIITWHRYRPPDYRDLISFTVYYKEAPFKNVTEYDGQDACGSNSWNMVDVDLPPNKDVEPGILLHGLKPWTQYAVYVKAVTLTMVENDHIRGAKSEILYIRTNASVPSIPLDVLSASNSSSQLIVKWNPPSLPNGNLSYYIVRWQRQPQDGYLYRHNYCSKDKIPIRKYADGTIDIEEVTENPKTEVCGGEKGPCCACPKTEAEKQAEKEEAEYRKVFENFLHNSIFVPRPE
T3 sequence (P08069 741-935 limits assumed): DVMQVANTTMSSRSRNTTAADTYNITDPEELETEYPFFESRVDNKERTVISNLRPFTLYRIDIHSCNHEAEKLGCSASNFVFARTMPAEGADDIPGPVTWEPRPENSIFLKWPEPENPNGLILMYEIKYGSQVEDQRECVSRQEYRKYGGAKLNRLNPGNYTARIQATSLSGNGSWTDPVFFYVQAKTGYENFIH
Method: • a. Preparation of the Assay Mix. […] This mixture was allowed to pre-incubate. • b. 20 µl of Competitor and Buffer were added to a 96-well microtiter plate (Costar Cat. #3912). • c. […] After the original 99 repeat readings were taken, periodic readings were taken until equilibrium had been established. NOTE: Different conditions can be used for these experiments. For example, a 1.1X concentration of assay mix can be initially made. Then first add 10 µl of Competitor and Buffer to the microtiter plate followed by 90 µl of the Assay Mix. • f.

[2] = Precipitate in diluted peptide stock prior to adding to the fat cell assay; solubility under assay conditions; type: physicochemical; details: diluted stock prior to adding to assay
[3] = biological target: T4, purified insulin receptor (Homo sapiens, UniProt P06213); test: Holoenzyme phosphorylation assay (IR autophosphorylation, Western blot); type: biochemical
T4 construct: host or cells: 'Wheat Germ Agglutinin Expression System' (so in the source)
T4 sequence (P06213 28-758 limits assumed): as the sequence (P06213 28-758 limits assumed) above
T4 sequence (P06213 763-1382 limits assumed): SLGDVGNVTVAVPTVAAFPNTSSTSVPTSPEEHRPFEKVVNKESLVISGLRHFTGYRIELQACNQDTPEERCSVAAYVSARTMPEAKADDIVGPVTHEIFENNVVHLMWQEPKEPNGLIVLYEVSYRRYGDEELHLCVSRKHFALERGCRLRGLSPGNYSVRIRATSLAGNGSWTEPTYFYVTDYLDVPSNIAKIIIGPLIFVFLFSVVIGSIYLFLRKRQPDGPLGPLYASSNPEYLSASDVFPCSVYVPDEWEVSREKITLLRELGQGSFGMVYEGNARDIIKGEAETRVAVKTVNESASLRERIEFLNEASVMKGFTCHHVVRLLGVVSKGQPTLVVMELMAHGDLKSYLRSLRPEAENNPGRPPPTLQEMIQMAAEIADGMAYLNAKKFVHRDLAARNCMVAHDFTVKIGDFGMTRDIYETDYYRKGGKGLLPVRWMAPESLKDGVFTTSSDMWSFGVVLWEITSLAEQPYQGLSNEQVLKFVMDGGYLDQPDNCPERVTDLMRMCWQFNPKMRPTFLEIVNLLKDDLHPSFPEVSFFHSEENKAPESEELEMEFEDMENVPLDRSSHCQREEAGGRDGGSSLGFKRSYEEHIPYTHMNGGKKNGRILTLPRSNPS
Method: Alternatively, IR autophosphorylation was determined using a holoenzyme phosphorylation assay. […] The reaction was stopped by adding 50 µl of gel loading buffer containing β-mercaptoethanol (Bio-Rad Laboratories, Inc., Hercules, CA). The samples were run on 4-12% SDS-polyacrylamide gels. Western Blot analysis was performed by transferring the proteins onto nitrocellulose membrane. The membrane was blocked in PBS containing 3% milk overnight. The membrane was incubated with anti-phosphotyrosine 4G10 HRP labeled antibody (Upstate Biotechnology) for 2 h. Protein bands were visualized using SuperSignal West Dura Extended Duration Substrate Chemiluminescence Detection System (Pierce Chemical Co.).

IGF-1R [4] = biological target: T3, IGF-1R; test: Phage ELISA, binding of phage-displayed peptides to IGF-1R; details: 405 nm
Method: Figures 1A-10G. Amino acid sequences comprising the motif of Formulas 1 through 10. […] One hundred microliters of this solution was added to an appropriate number of wells in a 96-well microtiter plate (MaxiSorp plates, Nunc) and incubated overnight at 4°C. […] Subsequent steps are the same for pooled and clonal phage. […] Phage resuspended in MPBS were added to duplicate wells (100 µl/well) and incubated at RT for 1 h. […] Incubation was for 1 h at RT, followed by PBS washes as described. […] Phage ELISA. […] The wells were blocked with 200 µl of MPBS for 1.5 h at RT. Phage were added at 100 µl per well. Peptides were added as noted below and allowed to incubate at RT for 3 h. The plates were washed 3 times with PBST. A solution of 1:3000 diluted HRP:Anti-M13 conjugate at 100 µl per well of was added for 1 h. Following a repeat of the washing, 100 µl of ABTS was added for 15-30 min. […] Phage ELISA. […] Phage were added at 100 µl per well. Peptides were added as noted below and allowed to incubate at RT for 3 h. The plates were washed 3X with PBST. A solution of 1:3000 diluted HRP:Anti-M13 Conjugate at 100 µl per well of was added for 1 h. Following a repeat of the washing, 100 µl of ABTS was added for 15-30 min. The OD405 was measured using a SpectraMax 340 Microplate Spectrophotometer.

CC(C)C[C@H](NC(=O)[C@H](Cc1c[nH]c2ccccc12)NC(=O)[C@@H](N)CCCCN)C(=O)N[C@@H](CC(=O)O)C(=O)N[C@@H](CCC(N)=O)C(=O)N[C@@H](CCC(=O)O)C(=O)N[C@@H](Cc1c[nH]c2ccccc12)C(=O)N[C@@H](C)C(=O)N[C@@H](Cc1c[nH]c2ccccc12)C(=O)N[C@H](C(=O)N[C@@H](CCC(N)=O)C(=O)N[C@H]1CSSC[C@@H](C(=O)N2CCC[C@H]2C(=O)N[C@@H](CO)C(=O)N[C@@H](CCCCN)C(=O)N[C@@H](CCCCNC(=O)CCCC[C@@H]2SC[C@@H]3NC(=O)N[C@@H]32)C(N)=O)NC(=O)CNC(=O)[C@H](CCCNC(=N)N)NC(=O)CNC(=O)[C@H](Cc2ccc(O)cc2)NC(=O)[C@H](C(C)C)NC(=O)[C@H](CCC(=O)O)NC1=O)C(C)C [Clone D8] (H-KWLDQEWAWVQCEVYGRGCPSKK(Biotin)-NH2; disulfide 12-19 (inferred); N-terminus assumed)
Result (RUs) (Insulin receptor): 41.6 RUs
Resp. (adipocytes): -1
Absorbance Values IR (IR): 1.42
effect on dissociation rate of 20E2 from IGF-1R (IGF-1R [1]): much slower dissociation rate
Comments (precipitation) [2]: Precipitates
Autophosph. Blot [3]: 0
Absorbance Values sIGF-1R (IGF-1R [4]): 2.19
